Paper PMC7790557, “Pleiotropic Properties of Amphiphilic Dihydropyridines, Dihydropyridones, and Aminovinylcarbonyl Compounds” (Oxidative Medicine and Cellular Longevity, 2020)
Where two headings read alike, the source gives them in different places.

Experiments:
in vitro [1] = details: mouse, NIH3T3 LD50, Table 3; calculated from NIH3T3 IC50 by regression formula
Description: (§1) Data from the in vitro tests were used for estimating the starting dose for acute oral systemic toxicity tests in the rodent. The in vivo starting dose is an estimated LD50 value calculated by inserting the in vitroIC50 value into a regression formula: log LD50 (mM/kg) = 0.439 log IC50 (mM) + 0.621 [23–25]. […] Using an alternative in vitro method allows the comparison between possibly toxic new compounds and selecting compounds for further study vastly reducing the number of animal experiments.
(§2) Additionally, the compound influence on “normal” mouse fibroblasts (NIH3T3) was estimated for the studies of structure-activity relationships and exploration of the effect of substituents.

[2] = system: NIH3T3 (mouse embryonic fibroblast); assay: Basal cytotoxicity test, Neutral Red Uptake (NRU) assay; details: for IC50: Mus musculus
Protocol: The NRU cytotoxicity assay procedure is based on the ability of viable cells to incorporate and bind neutral red, a supravital dye.
Balb/c NIH 3T3 (mouse Swiss albino embryo fibroblast, ATCC® CRL-1658™) cells (9000 cells/well) were placed into 96-well plates for 24 h in Dulbecco's modified Eagle's medium (DMEM) containing 5% fetal bovine serum. Then, the cells were exposed to the test compound over a range of seven concentrations (1000, 316, 100, 31, 10, 3, and 1 μg/ml) for 24 h. Untreated cells were used as a control. After 24 h, the medium was removed from all plates. Then, 150 μl of neutral red solution was added (0.05 mg/ml NR in DMEM 24 h preincubated at 37°C and then filtered before use through a 0.22 μm syringe filter). Plates were incubated for 3 h, and then, the cells were washed three times with PBS. The dye within viable cells was released by extraction with a mixture of acetic acid, ethanol, and water (1 : 50 : 49). The absorbance of neutral red was measured using a spectrophotometer multiplate reader (Tecan Infinite M1000) at 540 nm. The optical density (OD) was calculated using the following formula: OD (treated cells) × 100/OD (control cells). The IC50 values were calculated using the GraphPad Prism® 3.0 program.

[3] = system: HT-1080 (human lung fibrosarcoma); assay: Cytotoxicity, crystal violet (CV) assay, HT-1080; details: Homo sapiens, HT-1080, 72 h, read-out: HT-1080 IC50 (CV)
Protocol: (§5) IC50 is the compound concentration (μg/ml) at which 50% of the cells die. […] CV staining can be used to quantify the total DNA of the remaining population and thus is used to determine the number of live cells based on the concentration of the dye which remains after staining.
(§6) Tumor cell lines HT-1080 (human connective tissue fibrosarcoma, ATCC® CCL-121™) and MH-22A (mouse hepatocarcinoma, ECACC, cat. Nr. 96121721) were used.
(§7) HT-1080 and MH-22A cells were seeded in 96-well plates in Dulbecco's modified Eagle's (DMEM) medium containing 10% fetal bovine serum and 4 mM L-glutamine, without antibiotics, and cultivated for 72 h by exposure to different concentrations of compounds. Cell viability was measured using 3-(4,5-dimethylthiazol-2-yl)-2,5-diphenyltetrazolinium bromide (MTT). In brief, after incubating with compounds, the culture medium was removed and fresh medium with 0.2 mg/ml MTT was added in each well of the plate. After incubation (3 h, 37°C, 5% CO2), the medium with MTT was removed, and 200 μl DMSO was added at once to each sample. The samples were tested at 540 nm on a Tecan Infinite M1000 multiplate reader. The IC50 was calculated using the program GraphPad Prism® 3.0.
(§8) For the CV assay, cells were stained with 0.05% crystal violet (Sigma-Aldrich) in 30% methanol for 20 minutes at room temperature. After incubation, the staining solution was removed. The cells were washed 4 times with water. For dye solubilization, 200 μl of a solubilizing solution (0.1 M citrate buffer, pH 4.2 in 50% ethanol; 1 : 1 v/v) was added. The absorbance of the solution was measured using a Tecan Infinite M1000 multiplate spectrophotometer at a wavelength of 570 nm [21].

MH-22A (mouse hepatoma) [4] = assay: Cytotoxicity, crystal violet (CV) assay, MH-22A; format: cell-based; details: Mus musculus, read-out: MH-22A IC50 (CV)
Protocol: (§3) After incubation, the staining solution was removed. The cells were washed 4 times with water.

[5] = Electrochemical oxidation potentials, cyclic voltammetry; format: physicochemical; details: glassy carbon electrode, dry acetonitrile; for Oxidation potential E^ox: Table 4, vs Ag/Ag+, 0.1 M TBABF4, tested as perchlorates; for electrooxidation potential: cyclic voltammetry
Protocol: A stationary glassy carbon disk electrode (d = 0.5 mm) served as the working electrode, while the counterelectrode was a Pt wire. The oxidation potentials were measured relative to a Ag/Ag^+ reference electrode. Acetonitrile was dried over P2O5 and distilled; the distillate was stored over CaH2 and redistilled just before use. Recrystallized tetrabutylammonium tetrafluoroborate (TBABF4) was used as a supporting electrolyte at 0.1 M concentration.
The electrochemical oxidation of the selected compounds studied in this work was performed by cyclic voltammetry on a stationary glassy carbon electrode in dry acetonitrile; the data is presented in Table 4. The perchlorates of the tested amphiphiles were obtained from the corresponding bromides by treating their abs. MeOH solutions with excess of conc. HClO4 according to the procedure elaborated by Turovska et al..

[6] = system: HT-1080 (human lung fibrosarcoma); assay: Cytotoxicity, MTT assay, HT-1080; format: cell-based; details: Homo sapiens, read-out: HT-1080 IC50 (MTT)
Description: (§4) Reduction takes place only when mitochondrial reductase enzymes are active, and therefore, conversion is directly related to the number of viable cells which can be quantified by the absorbance of the solution (between λ = 500 and 600 nm) using a spectrophotometer.

MH-22A (mouse hepatoma) [7] = assay: Cytotoxicity, MTT assay, MH-22A; format: cell-based; details: Mus musculus, read-out: MH-22A IC50 (MTT)
Description: as §4

in vitro [8] = format: cell-based; details: human and mouse; summarises both cell lines, CV and MTT; read-out: cytotoxicity on cancer cell lines HT-1080 and MH-22A
Protocol: as §3

NIH3T3 = assay: in vitro; details: for LD50 (calculated, NIH3T3): mouse
Description: as §1, §2

[9] = Cytotoxicity, crystal violet (CV) assay, HT-1080; details: human, HT-1080 cells (fibrosarcoma)
Protocol: as §5, §6, §7, §8

[10] = NIH3T3, 24 h, read-out: NIH3T3 IC50 (NR), Table 3, 24 h exposure
[11] = HT-1080, Table 1, 72 h exposure
[12] = NIH3T3, 24 h, read-out: NIH3T3 IC50 (NR), Table 1, 24 h exposure
[13] = NIH3T3, 24 h, read-out: NIH3T3 IC50 (NR)
[14] = HT-1080, Table 3, 72 h exposure

Structure (SMILES)	LD50 (in vitro [1])	IC50 [2, 10]	IC50 [3]	IC50 (MH-22A (mouse hepatoma) [4]; Table 3, 72 h exposure)	IC50 [6, 11]	IC50 (MH-22A (mouse hepatoma) [7]; Table 1, 72 h exposure)	IC50 (MH-22A (mouse hepatoma) [4]; Table 1, 72 h exposure)	other results
CCCCCCCCCCCCOC(=O)/C=C(\N)C[n+]1ccccc1 [compound 47, (Z,E)-1-(2-Amino-4-(dodecyloxy)-4-oxobut-2-en-1-yl)pyridin-1-ium iodide]	403 mg/kg	14 ± 9 µg/mL	3 ± 0.4 µg/mL	2 ± 0.1 µg/mL				
O=C(OCCCCC(F)(F)C(F)(F)C(F)(F)C(F)(F)C(F)(F)C(F)(F)C(F)(F)C(F)(F)F)C1=C(C[n+]2ccccc2)NC(C[n+]2ccccc2)=C(C(=O)OCCCCC(F)(F)C(F)(F)C(F)(F)C(F)(F)C(F)(F)C(F)(F)C(F)(F)C(F)(F)F)C1c1ccccc1 [compound 24, Bis(5,5,6,6,7,7,8,8,9,9,10,10,11,11,12,12,12-heptadecafluorododecyl) 1,4-dihydro-2,6-dimethyl-4-phenylpyridine-3,5-dicarboxylate-2,6-dipyridinium bromide]			100 ± 11 µg/mL		100 ± 9 µg/mL	> 100 µg/mL	> 100 µg/mL	Oxidation potential E^ox [5]: 1.69 V; electrooxidation potential [5]: 1.69–1.70 V; IC50 [2, 12]: > 1000 µg/mL; IC50 (in vitro [8]): ~100 µg/mL
CCCCCCCCCCCCOC(=O)C1=C(C[n+]2ccccc2)NC(C[n+]2ccccc2)=C(C(=O)OCCCCCCCCCCCC)C1c1ccc(C2C(C(=O)OCCCCCCCCCCCC)=C(C[n+]3ccccc3)NC(C[n+]3ccccc3)=C2C(=O)OCCCCCCCCCCCC)cc1.[Br-].[Br-].[Br-].[Br-] [compound 26, 1,1',1'',1'''-((1,4-Phenylenebis(3,5-bis((dodecyloxy)carbonyl)-1,4-dihydropyridine-4,2,6-triyl))tetrakis(methylene))tetrakis(pyridin-1-ium) tetrabromide]			12 ± 4 µg/mL					IC50 ([6]; HT-1080, 72 h): 14 ± 2 µg/mL; IC50 (MH-22A (mouse hepatoma) [7]; 72 h): 21 ± 4 µg/mL; IC50 [2, 13]: 717 ± 56 µg/mL; IC50 at 72 h (in vitro [8]): 12 to 27 µg/mL; IC50 (MH-22A (mouse hepatoma) [4]; 72 h): 27 ± 6 µg/mL
CCCCCCCCCCCCCCCCOC(=O)/C=C(\N)C[N+](C)(C)C1CCCCC1 [compound 39, (Z,E)-N-(2-Amino-4-(hexadecyloxy)-4-oxobut-2-en-1-yl)-N,N-dimethylcyclohexanaminium chloride]	97 mg/kg	0.7 ± 0.1 µg/mL	0.35 ± 0.06 µg/mL	1 ± 0.6 µg/mL				IC50 [6, 14]: 0.5 ± 0.1 µg/mL; IC50 (MH-22A (mouse hepatoma) [7]; Table 3, 72 h exposure): 0.2 ± 0.06 µg/mL
CCOC(=O)C1=C(C[n+]2ccc(C)cc2)NC(C[n+]2ccc(C)cc2)=C(C(=O)OCC)C1c1ccccc1.[Br-].[Br-] [compound 2, 1,1'-((3,5-Bis(ethoxycarbonyl)-4-phenyl-1,4-dihydropyridine-2,6-diyl)bis(methylene))-bis(4-methylpyridin-1-ium) dibromide]			> 100 µg/mL		> 740 µg/mL	> 100 µg/mL	> 100 µg/mL	LD50 (calculated, NIH3T3) (NIH3T3): > 2000 mg/kg; IC50 [2, 13]: > 1000 µg/mL
CCCCCCCCCCCCOC(=O)C1=C(C[n+]2ccccc2)NC(C[n+]2ccccc2)=C(C(=O)OCCCCCCCCCCCC)C1c1ccccc1 [compound 11, 1,1'-((3,5-Bis((dodecyloxy)carbonyl)-4-phenyl-1,4-dihydropyridine-2,6-diyl)bis(methylene))bis(pyridin-1-ium) ditetrafluoroborate]			31 ± 4 µg/mL		28 ± 9 µg/mL	30 ± 9 µg/mL	30 ± 6 µg/mL	IC50 [2, 12]: 47 ± 8 µg/mL; IC50 at 72 h [9]: ~30 µg/mL
CCCCCCCCCCCCCCCCOC(=O)/C=C(\N)C[N+](C)(C)CCCCCCCCCCCC [compound 44, (Z,E)-N-(2-Amino-4-(hexadecyloxy)-4-oxobut-2-en-1-yl)-N,N-dimethyldodecan-1-aminium bromide]			3 ± 0.4 µg/mL	25 ± 3 µg/mL				Oxidation potential E^ox [5]: 1.24 V; electrooxidation potential [5]: 1.24 V; NIH3T3 LD50 (NIH3T3; Table 3, calculated from NIH3T3 IC50 by regression formula): 697 mg/kg; IC50 [6, 14]: 3 ± 0.3 µg/mL; IC50 (MH-22A (mouse hepatoma) [7]; Table 3, 72 h exposure): 28 ± 6 µg/mL; IC50 ([2]; NIH3T3, read-out: IC50 in NIH3T3 cell lines): ~30 µg/mL; NIH3T3 IC50 (NR) ([2]; Table 3, 24 h exposure): 31 ± 8 µg/mL
CCOC(=O)C1=C(C[n+]2ccccc2)NC(C[n+]2ccccc2)=C(C(=O)OCC)C1C(=O)OC.[Br-].[Br-] [compound 8, 1,1'-((3,5-Bis(ethoxycarbonyl)-4-(methoxycarbonyl)-1,4-dihydropyridine-2,6-diyl)-bis(methylene))bis(pyridin-1-ium) dibromide]			> 100 µg/mL		> 100 µg/mL	> 100 µg/mL	> 100 µg/mL	LD50 (calculated, NIH3T3) (NIH3T3): > 2000 mg/kg; IC50 [2, 13]: > 1000 µg/mL
CCCOCOC(=O)C1=C(C[n+]2ccccc2)NC(C[n+]2ccccc2)=C(C(=O)OCOCCC)C1c1ccccc1OC(F)F.[Br-].[Br-] [compound 7, 1,1'-((4-(2-(Difluoromethoxy)phenyl)-3,5-bis((propoxymethoxy)carbonyl)-1,4-dihydropyridine-2,6-diyl)bis(methylene))bis(pyridin-1-ium) dibromide]			> 100 µg/mL		> 100 µg/mL	> 100 µg/mL	> 100 µg/mL	LD50 (calculated, NIH3T3) (NIH3T3): > 2000 mg/kg; IC50 [2, 13]: > 1000 µg/mL
CCCCCCCCCCCC[N+](C)(C)C/C(N)=C/C(=O)OCCCCCCCCCC [compound 48, (Z,E)-N-(2-Amino-4-(decyloxy)-4-oxobut-2-en-1-yl)-N,N-dimethyldodecan-1-aminium chloride]	485 mg/kg	17 ± 3 µg/mL	3 ± 0.4 µg/mL	2 ± 0.2 µg/mL				
CCCCCCCCCCCCCCCCOC(=O)/C=C(\N)C[N+](C)(C)CCCCCCCCCCCC [compound 45, (Z,E)-N-(2-Amino-4-(hexadecyloxy)-4-oxobut-2-en-1-yl)-N,N-dimethyldodecan-1-aminium chloride]	573 mg/kg	25 ± 9 µg/mL						IC50 in NIH3T3 cell lines [2]: around 30 μg/ml
CCCCCCCCCCCCOC(=O)C1=C(C[N+](C)(C)C2CCCCC2)NC(C[N+](C)(C)C2CCCCC2)=C(C(=O)OCCCCCCCCCCCC)C1c1ccccc1.[O-][Cl+3]([O-])([O-])[O-].[O-][Cl+3]([O-])([O-])[O-] [compound 17, N,N'-((3,5-Bis((dodecyloxy)carbonyl)-4-phenyl-1,4-dihydropyridine-2,6-diyl)bis(methylene))bis(N,N-dimethylcyclohexanaminium) diperchlorate]			35 ± 9 µg/mL		23 ± 3 µg/mL	35 ± 9 µg/mL	54 ± 16 µg/mL	IC50 [2, 12]: 59 ± 12 µg/mL; IC50 (in vitro [8]): 23 to 54 µg/mL
CCCCCCCCCCCCCCCCOC(=O)/C=C(\N)C[N+](C)(C)CCCCCC [compound 43, (Z,E)-N-(2-Amino-4-(hexadecyloxy)-4-oxobut-2-en-1-yl)-N,N-dimethylhexan-1-aminium chloride]	538 mg/kg	21 ± 6 µg/mL	3 ± 0.6 µg/mL	2 ± 0.2 µg/mL				IC50 [6, 14]: 2 ± 0.4 µg/mL; IC50 (MH-22A (mouse hepatoma) [7]; Table 3, 72 h exposure): 1 ± 0.2 µg/mL
CCCCCCCCCCCCOC(=O)C1=C(C[n+]2ccccc2)NC(C[n+]2ccccc2)=C(C(=O)OCCCCC(F)(F)C(F)(F)C(F)(F)C(F)(F)C(F)(F)C(F)(F)C(F)(F)C(F)(F)F)C1c1ccccc1 (stereo not drawn) [compound 23, Dodecyl 5,5,6,6,7,7,8,8,9,9,10,10,11,11,12,12,12-heptadecafluorododecyl 1,4-dihydro-2,6-dimethyl-4-phenylpyridine-3,5-dicarboxylate-2,6-dipyridinium dibromide]			50 ± 6 µg/mL		47 ± 8 µg/mL	75 ± 11 µg/mL	47 ± 2 µg/mL	Oxidation potential E^ox [5]: 1.70 V; electrooxidation potential [5]: 1.69–1.70 V; IC50 [2, 12]: 477 ± 25 µg/mL; IC50 (in vitro [8]): 47 to 75 µg/mL
